assay: Human HepG2 cell viability assay in 384 well format; format: toxicity, cell-based; parameters: dose 125 nL, time 70.5 hour; concentration not given beside the values; conditions: HepG2 cells, read-out: Inhibition

Structure (SMILES)	cytotoxicity at 70.5 h [%]
COC(=O)[C@H](C)NC(=O)Cc1c(C)nc2c(c1C)c(=O)[nH]n2C	-2.82
CCC(=O)c1ccc(OCC(=O)NCC2CC(CC)=NO2)cc1 (stereo not given)	-1.34
O=C(CCc1nc(-c2cccnc2)no1)N(CC1CCOC1)C1CC1 (stereo not given)	12
CN1CCC(N(CCc2ccccc2)C(=O)c2ccoc2)CC1	-7.47
Cc1ccc2cc(C(=O)N3CCN(C(=O)N(C)C)CC3)ccc2n1	-2.65
CNc1cc(C2CCCN(S(=O)(=O)c3cn[nH]c3)C2)ccn1 (stereo not given)	-16.1
Cc1nn(C)c(N2CCCN(C)CC2)c1CNC(=O)CC1CCCC1	0.191
NC(=O)CCNCc1c(Cl)cccc1N1CCCC1	-6.13
O=C(c1ccncn1)N1C[C@H]2CCC[C@@]2(COCC2CCOCC2)C1	-14.6
CN(C)C(=O)CC1CCOc2ccccc21 (stereo not given)	0.971
CC(=O)N(Cc1noc(C2CC2)n1)C1CCN(Cc2ccccc2)C1 (stereo not given)	-5.69
NCCNS(=O)(=O)Cc1ccc(Br)cc1	-0.385
CN(C)C(CNC(=O)c1cccc(-n2cnnn2)c1)c1ccccc1Cl (stereo not given)	-2.81
CCOCCN1CCN(Cc2nc(C)no2)CC1CC (stereo not given)	-2.4
COc1ccc(CC2(CO)CCN(c3cc(C(N)=O)ccn3)CC2)cc1	-2.15
O=C(NCC1(O)COCCN(Cc2ccc(O)cc2)C1)c1cnccn1 (stereo not given)	-9.12
CCc1ccccc1OC1CN(C(=O)c2ccsc2)C1	-3.52
CCN(CCO)Cc1ccc(Br)c2cccnc12	-1.88
Cc1ccc(NC(=O)CCC2CC2)cc1N1CCOC1=O	-10.8
COc1ccc(OC)c(CN(C)c2nc3c(cnn3C)c(=O)[nH]2)c1	42.4
CN(C(=O)CN1CCC(c2cc3ccccc3[nH]2)CC1)C(C)(C)C#N	-16.1
Cc1ccc(=O)n(CC2(O)CCN(Cc3cnn(C)c3)CC2)n1	-3.09
c1csc(CN2CC(c3nc(-c4cnccn4)no3)C2)c1	-4.66

Structure (SMILES)	cytotoxicity at 70.5 h [%]
CCc1nn(C)c2[nH]nc(NC(=O)c3ccccc3COC)c12	-101
Cn1nc(Br)c2c(NCCCS(N)(=O)=O)ncnc21	-22.7
CN(Cc1nccn1C)c1nccc(N2CCCC(O)C2)n1 (stereo not given)	2.11
Cn1cc(C2CCCN2C(=O)CCCOc2ccccc2F)cn1 (stereo not given)	-2.53
CCn1cnnc1CN(C)Cc1c[nH]nc1-c1ccc(F)cc1	-1.22
CN1CCN(C(CNC(=O)c2ccc(Cl)cc2F)c2cccs2)CC1 (stereo not given)	42.7
O=C(Cc1cccs1)Nc1cnn(C2CCOCC2)c1	-12.8
O=C(CCCNc1ncccn1)N1CCCC(n2cncn2)C1 (stereo not given)	-7.32
COc1ccc(-c2csc(N)c2C#N)cc1	-24.3
COCCN1CCCC(O)(CN2CCN(c3cnccn3)CC2)C1=O (stereo not given)	-3.08
Cc1ccc(-c2ncc(C(=O)N3CCN4CCCCC4C3)c(O)n2)cc1 (stereo not given)	-4.08
CCc1cc(=O)[nH]c2nnc(SCC(=O)NC)n12	14.5
CS(=O)(=O)N1CCCCC12CCN(C(=O)c1ccccc1)C2 (stereo not given)	-8.78
CCCn1ccnc1CN1CCCC(O)(CN2CCCC2)C1 (stereo not given)	-2.63
CC(C)(C)c1cc(=O)[nH]c(C2(N)CCCC2)n1	14.1
COCC(=O)N1CCC2(CC1)c1ccccc1[C@@H](N1CCSCC1)[C@@H]2O	4.64
O=S(=O)(c1ccc(F)c(F)c1)N1CCCC(c2nccs2)C1 (stereo not given)	1.6
O=S(=O)(c1cccnc1)N1C[C@@H]2COC[C@]2(COCC2CC2)C1	-3.67
NC(=O)CN1CCCN(C(=O)Cc2ccc(Br)cc2)CC1	-13.7
COc1ccc(CN2C[C@@H]3CN(C(=O)c4ccsc4)C[C@@H]3C2=O)cc1	-4.99
COCC1CN(C(=O)Nc2cc(-n3cccc3)ccc2F)CCO1 (stereo not given)	7.34
O=C(Nc1ccccc1-c1cccs1)N1CCN(CC(F)F)CC1	-11.6
COCCOc1ccc(NC(=O)N2CCCC2c2cc(C)no2)cn1 (stereo not given)	-7.2

Structure (SMILES)	cytotoxicity at 70.5 h [%]
Cc1nc(C)n(C2CCCN(C(=O)c3ncoc3C(C)C)C2)n1 (stereo not given)	-11.1
N[C@@H](Cc1ccccc1)c1nnc(S(=O)(=O)Cc2ccc(Cl)cc2)o1	12.7
Cn1c(-c2ccccc2Cl)nc2cc(C(=O)NCCS(C)(=O)=O)cnc21	-7.15
CCN(CC)Cc1cc(=O)n2c(n1)CN(C(=O)c1ccc[nH]1)CCC2	-4.87
O=C(NC1CCCN(CCCc2ccccc2)C1)c1ccc(Cl)s1 (stereo not given)	-4.66
COCC(NC(=O)c1ccoc1)c1ccc(C)o1 (stereo not given)	-2.43
Cc1cc(C(=O)Nc2ccnc(OC3CCOC3)c2)c(C)o1 (stereo not given)	-1.8
COc1ccc(Oc2cccnc2)cc1CN1CCCC1	28.5
COC(=O)N1CCC(Nc2ccc(Cl)c(C#N)n2)C1 (stereo not given)	-2.14
CC(C)CCNc1nnc(C(C)C)s1	-3.84
Cc1ccc(N2C[C@H]3CCC[C@@H](CN4CCOCC4)[C@H]3C2)nn1	-1.56
COCCN1CCC2(CCN(Cc3nccs3)CC2)C1=O	-8.69
CSc1nccc(NCc2cc3n(n2)CCCN(C(=O)C2CCC2)C3)n1	22.4
CCN1CC2(CCNCC2)COc2ccccc2S1(=O)=O	-15.6
O=C(Cc1cnn(-c2ccccc2)n1)NC1CCOCC1	-0.727
CSCC(=O)N1CCc2c(cnc(C)c2-c2noc(-c3cc[nH]n3)n2)C1	-12.6
CCS(=O)(=O)c1ncc(CN(C)CCc2ccccn2)n1CCOC	-8.19
O=S(=O)(Cc1ccccc1)CC(O)Cn1cccn1 (stereo not given)	-2.14
c1cc(-c2nnc(C3CCCN(CC4CCCCC4)C3)o2)ccn1 (stereo not given)	-5.12
CCOC(=O)CCn1cnc2onc(-c3cc(OC)ccc3Cl)c2c1=O	-11
Cc1cc(F)ccc1CN1CCCC2(C1)OCCO2	-3.36
O=C(c1cncs1)N1CCOCC(Cc2ccncn2)C1 (stereo not given)	-7.66
Cc1nn(C)cc1-c1ccnc(N(C)Cc2cccs2)n1	2.52

Structure (SMILES)	cytotoxicity at 70.5 h [%]
COCC(=O)N1CCCC(c2nc(N(C)C)ncc2-c2ccccc2)C1 (stereo not given)	4.41
CC(C)N(C)Cc1cn2c(n1)CN(C(=O)Cc1ccsc1)CC2	0.0105
CCOc1cccc(CNCc2ccc(NC(=O)NC(C)C)cc2)c1	4.86
CN(Cc1ccc(F)cc1)C(=O)CN1CCOC(Cn2cncn2)C1 (stereo not given)	40.3
Cc1nc2n(n1)CC(NCc1ccccc1OCC(=O)N(C)C)CC2 (stereo not given)	-3.73
CN1CCc2c(CNC(=O)c3nccn3C)cncc2C1	-0.526
Cc1ccccc1NC(=O)CCNC(=O)c1ccoc1	2.88
O=C1CC(c2ccc(O)cc2)c2c(n3ccsc3nc2=O)N1 (stereo not given)	-29.2
Cc1c[nH]c(CN2CCN(C)C3(CCC(=O)N(CC4CC4)CC3)C2)n1 (stereo not given)	19.9
CN1CCC(c2cnc(NCc3nccn3C)cn2)CC1	17.9
CCN1C[C@@H](C(=O)O)[C@H](c2cccc(OC)c2)C1	5.16
Cc1c(-c2cc(-c3cnn(C)c3C)n(CC(=O)NC3CC3)n2)cnn1C	19.6
Cc1c(Cl)c(C(=O)N2CC[C@H](N3CCOCC3)[C@H](CCCO)C2)nn1C	3.03
COCCN1C(=O)CCC12CCCN(C(=O)CC1CC1)CC2 (stereo not given)	-6.84
O=C(c1nn(-c2ccccc2F)cc1O)N1CCCCC1	-7.27
NS(=O)(=O)NCC1(c2ccccc2Br)CC1	0.0399
O=C(NCC1CCS(=O)(=O)C1)N(Cc1ccco1)C1CC1 (stereo not given)	-10.7
O=C1O[C@@H]2CN(c3ccc(Cl)cn3)C[C@@H]2N1CCc1ccc(F)cc1	-8.87
OC(CN(Cc1ccccc1)Cc1ccccn1)c1cccs1 (stereo not given)	-11
c1csc(CNc2ccccc2Cn2cncn2)c1	7.58
COc1ccc(N2CCC(NC(=O)c3sccc3C)CC2)cc1	18.3
COc1cccc(S(=O)(=O)N2CCCCC2CCN2CCOCC2)c1 (stereo not given)	24.6
COc1cccc(CNc2ccc(F)c(Cl)c2)c1O	-4.8

Structure (SMILES)	cytotoxicity at 70.5 h [%]
CCCn1ccc2cc(NC(=O)NCCn3cnnc3CC)ccc21	-9.53
CN(C)CCOc1cc(NC(=O)COCC(F)(F)F)ccn1	-2.8
COCC(=O)N1CCC(c2cc3nc(C)cc(C(F)(F)F)n3n2)CC1	25.3
CC(C)OCCCN(Cc1ccncc1)Cc1cccc(F)c1F	22.3
OCC(CO)N1CCC(c2nnc(Cn3ccnc3)n2C2CC2)CC1	12.4
CC(C)NC(=O)Nc1ncc(-c2cccnc2)s1	-4.04
Cc1nc(C)n(CC2CCCCN2CC(=O)NC(C2CC2)C2CC2)n1 (stereo not given)	3.82
CC(NCCn1cccn1)c1ccc(F)cc1F (stereo not given)	-2.25
Cn1cc(I)c(C(=O)NCCCn2cc(Br)cn2)n1	0.223
CCc1nc(CNCC2CCCN2c2cc(NC)ncn2)cs1 (stereo not given)	-4.75
Cc1ccc(C(=O)Nc2nnc(C(C)C)s2)c(-n2cnnn2)c1C	-5.81
CCc1nc(C2CCCN(C(=O)C3=NN(C(C)C)C(=O)CC3)C2)no1 (stereo not given)	-13.3
COc1ccccc1CN(CC1CCCO1)C(=O)c1csnn1 (stereo not given)	-12.2
Cc1cccc(C(=O)N2C[C@@H]3OCCN(c4ncccn4)[C@@H]3C2)n1	2.67
NC(=O)CCC1CCCN(c2ccnc3cc(F)ccc23)C1 (stereo not given)	-12.1
O=C(CCO)N1CCOC2(CCCN(C(=O)c3ccco3)C2)C1 (stereo not given)	-7.04
CC(NC(=O)c1coc(COc2cccc(F)c2)n1)c1nnc(N)s1 (stereo not given)	-10.7
Cc1cc(Cl)ccc1C(=O)N[C@H]1CN(S(C)(=O)=O)C[C@@H]1C1CC1	-0.333
NC1(c2nc(-c3ccccc3)cc(=O)[nH]2)CCCC1	13.8
CCCOC1CCCN(C(=O)Cn2cccc(C(F)(F)F)c2=O)C1 (stereo not given)	-6.8
Cc1cnn(CC2CN(Cc3cccnc3)CCO2)c1 (stereo not given)	-6.35
COCc1c(C(=O)O)nnn1Cc1cccc(C(F)(F)F)c1	-18.5
COC1CCN(S(=O)(=O)N2CC[C@@](O)(C3CCC3)[C@H](C)C2)CC1	-11.9
